Key:
Influenza A virus = experiment: Antiviral activity against Influenza A virus (A/California/07/2009(H1N1)) infected in MDCK cells measured after 4 days by colorimetric assay; type: functional, organism-based
[1] = Selectivity index, ratio of CC50 for African green monkey Vero cells to IC50 for ectromelia virus K-1 infected in Vero cells; type: toxicity, cell-based; conditions: read-out: Ratio CC50/IC50
[2] = Selectivity index, ratio of CC50 for African green monkey Vero cells to IC50 for Vaccinia virus Copenhagen infected in Vero cells; type: toxicity, cell-based; conditions: read-out: Ratio CC50/IC50
[3] = (§1) Cytotoxicity against MDCK cells measured after 4 days by colorimetric assay; type: toxicity, cell-based, Canis lupus familiaris; conditions: dog, MDCK cells; time 4 day
[4] = Selectivity index, ratio of CC50 for African green monkey Vero cells to IC50 for Cowpox virus Grishak infected in Vero cells; type: toxicity, cell-based; conditions: read-out: Ratio CC50/IC50
Ectromelia virus = experiment: Antiviral activity against ectromelia virus K-1 infected in Vero cells measured after 4 days by colorimetric assay; type: functional, organism-based; conditions: K-1, Vero, 96 h
Cowpox virus = experiment: Antiviral activity against Cowpox virus Grishak infected in Vero cells measured after 4 days by colorimetric assay; type: functional, organism-based; conditions: 96 h
Vaccinia virus = experiment: Antiviral activity against Vaccinia virus Copenhagen infected in Vero cells measured after 4 days by colorimetric assay; type: functional, organism-based, Orthopoxvirus vaccinia
[5] = (§2) Cytotoxicity against African green monkey Vero cells measured after 4 days by colorimetric assay; type: toxicity, cell-based; conditions: chlorocebus sabaeus, Vero cells; time 4 day
[6] = Selectivity index, ratio of CC50 for MDCK cells to IC50 for Influenza A virus (A/California/07/2009(H1N1)) infected in MDCK cells; type: toxicity, cell-based; conditions: dog, read-out: Ratio CC50/IC50
MDCK = experiment: as §1; type: toxicity, cell-based, Canis lupus familiaris; conditions: dog, mdck, 96 h; time 4 day
Vero = experiment: as §2; type: toxicity, cell-based; conditions: chlorocebus sabaeus, vero, 96 h; time 4 day
[7] = Orthopoxvirus vaccinia, Copenhagen, Vero, 96 h, read-out: IC50
[8] = Influenza A virus, A/California/07/2009(H1N1), MDCK, 96 h, read-out: IC50

SMILES	IC50 (Influenza A virus; mdck)	selectivity ratio [1]	selectivity ratio [2]	CC50 at 96 h [3] [µM]	selectivity ratio [4]	IC50 (Ectromelia virus) [µM]	IC50 (Cowpox virus) [µM]	IC50 (Vaccinia virus; [7]) [µM]	CC50 at 96 h [5] [µM]	IC50 (Influenza A virus; [8]) [µM]	selectivity ratio [6]	IC50 (Vaccinia virus; vero)	CC50 (MDCK) [µM]	CC50 (Vero) [µM]
CCCCNC(=O)c1c(O)nc(-c2ccc([N+](=O)[O-])cc2)n1O	Not Active	23	66	27.2	16	8.9	12.3	3.02	201					
CCOC(=O)c1c(O)nc(-c2ccccc2)n1O				> 406					172	213	1.9	Not Active		
CCOC(=O)c1c(O)nc(-c2ccc(C(F)(F)F)cc2)n1O	Not Active	46	919	> 318	32	6.75	10	0.35	322					
CCCCNC(=O)c1c(O)nc(-c2ccccc2)n1O	Not Active		6	> 366				73.4	436					
O=C(NC1CC1)c1c(O)nc(-c2ccc([N+](=O)[O-])cc2)n1O	Not Active	24	33	> 331	16	14.7	22.1	10.7	357					
CCOC(=O)c1c(O)nc(-c2cccc([N+](=O)[O-])c2)n1O				> 344					375	118	2.9	Not Active		
O=C(NC1CC1)c1c(O)nc(-c2ccccc2O)n1O	Not Active											Not Active	> 366	299
CCCCNC(=O)c1c(O)nc(-c2ccccc2[N+](=O)[O-])n1O	Not Active			> 314					> 314			Not Active		
O=C(NC1CC1)c1c(O)nc(-c2ccccc2[N+](=O)[O-])n1O	Not Active			> 331					> 331			Not Active		
O=C(NNC(=O)C1C2C=CC(C3CC23)C1C(=O)O)c1ccc(C(F)(F)F)cc1 (centres undefined)		157	157		58.8	0.0076	0.0203	0.0076						1190
CCCCNC(=O)c1c(O)nc(-c2ccc(C(F)(F)F)cc2)n1O	Not Active		8					3.4	26				12.9	
Nc1ccn(C[C@@H](CO)OCP(=O)(O)O)c(=O)n1 [CIDOFOVIR]		29	30		21	34	46.4	32.5						989
O=C(NC1CC1)c1c(O)nc(-c2ccc(C(F)(F)F)cc2)n1O	Not Active		10	> 308				20.6	202					
O=C(NC1CC1)c1c(O)nc(-c2ccccc2)n1O	Not Active			> 389					> 389			Not Active		
CCOC(=O)c1c(O)nc(-c2ccccc2[N+](=O)[O-])n1O	Not Active			> 344					343			Not Active		
CCCCNC(=O)c1c(O)nc(-c2ccccc2O)n1O	Not Active		13	42.9				15	197					
CCOC(=O)c1c(O)nc(-c2ccccc2O)n1O	Not Active	77	117	> 382	58	23.6	31.4	15.5	1830					
O=C(NC1CC1)c1c(O)nc(-c2cccc([N+](=O)[O-])c2)n1O	Not Active			> 331					261			Not Active		
CCCCNC(=O)c1c(O)nc(-c2cccc([N+](=O)[O-])c2)n1O	Not Active		9	> 314				17.6	164					
CCOC(=O)c1c(O)nc(-c2ccc([N+](=O)[O-])cc2)n1O		43	102	> 344	14	1.07	3.23	0.45	45.7	188	1.8			

Reference: ChEMBL document CHEMBL5223146, “Synthesis of esters and amides of 2-aryl-1-hydroxy-4-methyl-1H-imidazole-5-carboxylic acids and study of their antiviral activity against orthopoxviruses” (Bioorg Med Chem Lett, 2023)
